Reference: patent US10106501B2, “Nuclear receptor modulators” (AbbVie Inc., priority 2015, dated 2018)
Like-named read-outs stand apart in the source and are kept apart here.

Target: T1, chimeric human RORγ-Gal4 receptor (Homo sapiens, UniProt P51449)
T1 sequence (P51449 269-508 limits assumed): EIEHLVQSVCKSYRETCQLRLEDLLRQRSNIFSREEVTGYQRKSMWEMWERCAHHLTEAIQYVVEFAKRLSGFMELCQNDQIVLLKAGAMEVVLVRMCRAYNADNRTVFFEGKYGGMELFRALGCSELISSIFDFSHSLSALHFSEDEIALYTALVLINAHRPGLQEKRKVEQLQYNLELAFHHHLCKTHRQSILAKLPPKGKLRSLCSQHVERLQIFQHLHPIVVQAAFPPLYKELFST
Experiment: transient transactivation assay (RORγ-Gal4 luciferase reporter)
Format: cell-based
Conditions: read-out: IC50

[1] = Cos-7 cells transfected with RORγ-Gal4 and 5Gal4 pGL3 TK Luc reporter, overnight incubation, T0901317 at 10^-5 M as reference

Structure (SMILES) | IC50 [1] [nM] | IC50 [nM]
Cc1cc(C(F)(F)F)nc2c1cc(C(=O)c1c(Cl)ccc(C(=O)N3CCC(O)CC3)c1Cl)n2C [Example FZ, (2,4-dichloro-3-(1,4-dimethyl-6-(trifluoromethyl)-1H-pyrrolo[2,3-b]pyridine-2-carbonyl)phenyl)(4-hydroxypiperidin-1-yl)methanone] | < 100 | –
Cc1ccc(C(=O)N2CCOCC2)c(C)c1C(=O)c1cc2c(C)cc(C(F)(F)F)cc2n1C [Example G1, (2,6-dimethyl-3-(morpholine-4-carbonyl)phenyl)(1,4-dimethyl-6-(trifluoromethyl)-1H-indol-2-yl)methanone] | 100 to 500 | –
Cc1cc(C(F)(F)F)nc2c1cc(C(=O)c1c(Cl)ccc(C(=O)N3CC[C@@H](CC(=O)O)[C@@H](C)C3)c1Cl)n2C.Cc1cc(C(F)(F)F)nc2c1cc(C(=O)c1c(Cl)ccc(C(=O)N3CC[C@@H](CC(=O)O)[C@H](C)C3)c1Cl)n2C.Cc1cc(C(F)(F)F)nc2c1cc(C(=O)c1c(Cl)ccc(C(=O)N3CC[C@H](CC(=O)O)[C@@H](C)C3)c1Cl)n2C.Cc1cc(C(F)(F)F)nc2c1cc(C(=O)c1c(Cl)ccc(C(=O)N3CC[C@H](CC(=O)O)[C@H](C)C3)c1Cl)n2C [Example GA] | – | < 100
Cc1cc(C(F)(F)F)nc2c1cc(C(=O)c1c(Cl)ccc(C(=O)N3CCC(S(C)(=O)=O)CC3)c1Cl)n2C [Example GB, (2,4-dichloro-3-(1,4-dimethyl-6-(trifluoromethyl)-1H-pyrrolo[2,3-b]pyridine-2-carbonyl)phenyl)(4-(methylsulfonyl)piperidin-1-yl)methanone] | < 100 | –
Cc1cc(C(F)(F)F)nc2c1cc(Cc1c(Cl)ncc(C(=O)N3CC[C@@H](CC(=O)O)[C@@H](C)C3)c1Cl)n2C [Example GC, 2-((3R,4S)-1-(4,6-dichloro-5-((1,4-dimethyl-6-(trifluoromethyl)-1H-pyrrolo[2,3-b]pyridin-2-yl)methyl)nicotinoyl)-3-methylpiperidin-4-yl)acetic acid] | < 100 | –
Cc1cc(C(F)(F)F)nc2c1cc(Cc1c(Cl)ncc(C(=O)N3CCN(S(C)(=O)=O)CC3)c1Cl)n2C [Example GE, (4,6-dichloro-5-((1,4-dimethyl-6-(trifluoromethyl)-1H-pyrrolo[2,3-b]pyridin-2-yl)methyl)pyridin-3-yl)(4-(methylsulfonyl)piperazin-1-yl)methanone] | 100 to 500 | –
Cc1cc(C(F)(F)F)nc2c1cc(Cc1c(Cl)ncc(C(=O)N3CCOCC3)c1Cl)n2C [Example GF, (4,6-dichloro-5-((1,4-dimethyl-6-(trifluoromethyl)-1H-pyrrolo[2,3-b]pyridin-2-yl)methyl)pyridin-3-yl)(morpholino)methanone] | < 100 | –
Cc1cc(C(F)(F)F)nc2c1cc(Cc1c(Cl)ncc(C(=O)N3CCC(S(C)(=O)=O)CC3)c1Cl)n2C [Example GG, (4,6-dichloro-5-((1,4-dimethyl-6-(trifluoromethyl)-1H-pyrrolo[2,3-b]pyridin-2-yl)methyl)pyridin-3-yl)(4-(methylsulfonyl)piperidin-1-yl)methanone] | < 100 | –
Cc1cc(C(F)(F)F)nc2c1cc(Cc1c(Cl)cnc(C(=O)N3CCOCC3)c1Cl)n2C [Example GH, (3,5-dichloro-4-((1,4-dimethyl-6-(trifluoromethyl)-1H-pyrrolo[2,3-b]pyridin-2-yl)methyl)pyridin-2-yl)(morpholino)methanone] | – | < 100
Cn1c(C(=O)c2c(Cl)ccc(C(=O)N3CCC(CC(=O)O)CC3)c2Cl)cc2ccc(OC(F)(F)F)cc21 [Example GI, 2-(1-(2,4-dichloro-3-(1-methyl-6-(trifluoromethoxy)-1H-indole-2-carbonyl)benzoyl)piperidin-4-yl)acetic acid] | < 100 | –
Cn1c(Cc2c(Cl)cnc(C(=O)N3CCC(CC(=O)O)CC3)c2Cl)cc2ccc(OC(F)(F)F)cc21 [Example GK, 2-(1-(3,5-dichloro-4-((1-methyl-6-(trifluoromethoxy)-1H-indol-2-yl)methyl)picolinoyl)piperidin-4-yl)acetic acid] | < 100 | –
Cn1c(Cc2c(Cl)ncc(C(=O)N3CCC(CC(=O)O)CC3)c2Cl)cc2c(F)cc(C3CC3)cc21 [Example GN, 2-[1-[4,6-dichloro-5-[(6-cyclopropyl-4-fluoro-1-methyl-1H-indol-2-yl)methyl]pyridine-3-carbonyl]-4-piperidyl]acetic acid] | < 100 | –
COC(c1c(C)ccc(C(=O)N2CCOCC2)c1C)c1cc2c(C)cc(C(F)(F)F)cc2n1C (centres unmarked) [Example K1, (3-((1,4-dimethyl-6-(trifluoromethyl)-1H-indol-2-yl)(methoxy)methyl)-2,4-dimethylphenyl)(morpholino)methanone] | 100 to 500 | –
Cn1c(Cc2c(Cl)ccc(C(=O)N3CCC(CO)CC3)c2Cl)cc2ccc(C(F)(F)F)cc21 [Example L-2] | 100 to 500 | –
CC(=O)N1CCN(C(=O)c2ccc(Cl)c(Cc3cc4ccc(C(F)(F)F)cc4n3C)c2Cl)CC1 [Example L-3] | 100 to 500 | –
Cn1c(Cc2c(Cl)ccc(C(=O)N3CC[C@@H](F)[C@H](O)C3)c2Cl)cc2ccc(C(F)(F)F)cc21 [Example L-5] | 500 to 1000 | –
Cc1cc(C(F)(F)F)cc2c1CC(Cc1c(Cl)ccc(C(=O)N3CCOCC3)c1Cl)N2C (centres unmarked) [Example Q, (2,4-dichloro-3-((1,4-dimethyl-6-(trifluoromethyl)indolin-2-yl)methyl)phenyl)(morpholino)methanone] | 100 to 500 | –
Cn1c(Cc2c(Cl)ccc(C(=O)N3CCC(CC(=O)O)CC3)c2Cl)cc2c(Cl)cc(C#N)cc21 [Example R, 2-(1-(2,4-dichloro-3-((4-chloro-6-cyano-1-methyl-1H-indol-2-yl)methyl)benzoyl)piperidin-4-yl)acetic acid] | < 100 | –

Continued, in another order:

IC50 [1] [nM] | Structure (SMILES) | IC50 [nM]
< 100 | Cc1cc(C(F)(F)F)cc2c1cc(Cc1c(Cl)ccc(C(=O)N3CCN(C4CC(C(=O)O)C4)CC3)c1Cl)n2C (centres unmarked) [Example S, 3-(4-(2,4-dichloro-3-((1,4-dimethyl-6-(trifluoromethyl)-1H-indol-2-yl)methyl)benzoyl)piperazin-1-yl)cyclobutanecarboxylic acid] | –
100 to 500 | Cc1cc(C(F)(F)F)cc2c1cc(Cc1c(Cl)ccc(C(=O)N3CCN(C(C)(C)C(=O)O)CC3)c1Cl)n2C [Example T, 2-(4-(2,4-dichloro-3-((1,4-dimethyl-6-(trifluoromethyl)-1H-indol-2-yl)methyl)benzoyl)piperazin-1-yl)-2-methylpropanoic acid] | –
< 100 | Cc1cc(C(F)(F)F)cc2c1cc(Cc1c(Cl)ccc(C(=O)N3CCN(C(C)C(=O)O)CC3)c1Cl)n2C (centres unmarked) [Example U, 2-(4-(2,4-dichloro-3-((1,4-dimethyl-6-(trifluoromethyl)-1H-indol-2-yl)methyl)benzoyl)piperazin-1-yl)propanoic acid] | –
< 100 | Cc1cc(C(F)(F)F)cc2c1c(Cc1c(Cl)ccc(C(=O)N3CCC(CC(=O)O)CC3)c1Cl)cn2C [F, 2-(1-(2,4-dichloro-3-((1,4-dimethyl-6-(trifluoromethyl)-1H-indol-3-yl)methyl)benzoyl)piperidin-4-yl)acetic acid] | –
< 100 | Cn1c(Cc2c(Cl)ccc(C(=O)N3CCC(CC(=O)O)CC3)c2Cl)cc2c(Cl)cc(Cl)cc21 [FA, 2-(1-(2,4-dichloro-3-((4,6-dichloro-1-methyl-1H-indol-2-yl)methyl)benzoyl)piperidin-4-yl)acetic acid] | –
< 100 | Cn1c(Cc2c(Cl)ccc(C(=O)N3CCC(C(=O)O)CC3)c2Cl)cc2c(F)cc(C(F)(F)F)cc21 [FE-2] | –
< 100 | C[C@@H]1CN(C(=O)c2ccc(Cl)c(Cc3cc4c(F)cc(C(F)(F)F)cc4n3C)c2Cl)CC[C@@H]1C(=O)O [FE-3] | –
< 100 | C[C@H]1CN(C(=O)c2ccc(Cl)c(Cc3cc4c(F)cc(C(F)(F)F)cc4n3C)c2Cl)CC[C@H]1C(=O)O [FE-4] | –
< 100 | Cc1cc(OC(F)F)cc2c1cc(Cc1c(Cl)ccc(C(=O)N3CCC(C(=O)O)C(C)C3)c1Cl)n2C (centres unmarked) [FF-1] | –
< 100 | Cc1cc(OC(F)F)cc2c1cc(Cc1c(Cl)ccc(C(=O)N3CCC(C(=O)O)CC3)c1Cl)n2C [FF-2] | –
< 100 | Cn1c(Cc2c(Cl)ccc(C(=O)N3CCC(C(=O)O)CC3)c2Cl)cc2ccc(OC(F)(F)F)cc21 [FI-1] | –
< 100 | CC1CN(C(=O)c2ccc(Cl)c(Cc3cc4ccc(OC(F)(F)F)cc4n3C)c2Cl)CCC1C(=O)O (centres unmarked) [FI-2] | –
< 100 | Cc1ccc(C(=O)N2CCOCC2)c(C)c1Cc1cc2c(C)cc(C(F)(F)F)cc2n1C [G, (3-((1,4-dimethyl-6-(trifluoromethyl)-1H-indol-2-yl)methyl)-2,4-dimethylphenyl)(morpholino)methanone] | –
< 100 | Cc1cc(C(F)(F)F)cc2ccn(Cc3c(Cl)ccc(C(=O)N4CCC(CC(=O)O)CC4)c3Cl)c12 [J, 2-(1-(2,4-dichloro-3-((7-methyl-5-(trifluoromethyl)-1H-indol-1-yl)methyl)benzoyl)piperidin-4-yl)acetic acid] | –
100 to 500 | Cc1ccc(C(=O)N2CCOCC2)c(C)c1C(O)c1cc2c(C)cc(C(F)(F)F)cc2n1C (centres unmarked) [K, (3-((1,4-dimethyl-6-(trifluoromethyl)-1H-indol-2-yl)(hydroxy)methyl)-2,4-dimethylphenyl)(morpholino)methanone] | –
< 100 | Cn1c(Cc2c(Cl)ccc(C(=O)N3CCC(O)CC3)c2Cl)cc2ccc(C(F)(F)F)cc21 [L, (2,4-dichloro-3-((1-methyl-6-(trifluoromethyl)-1H-indol-2-yl)methyl)phenyl)(4-hydroxypiperidin-1-yl)methanone] | –
100 to 500 | Cn1c(Cc2c(Cl)ccc(C(=O)N3CCC(C(=O)O)CC3)c2Cl)cc2ccc(C(F)(F)F)cc21 [M, 1-(2,4-dichloro-3-((1-methyl-6-(trifluoromethyl)-1H-indol-2-yl)methyl)benzoyl)piperidine-4-carboxylic acid] | –
